Experimental data: ChEMBL document CHEMBL1201862, “PubChem BioAssay data set” (2004)
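Results reflect a 48-hour exposure of cells in 96-well plates to compound at five concentrations. Here, GI50 denotes the concentration required for 50% inhibition of growth.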 Active and inactive are the calls of the source. Cut-off read from the data, not from the text of the source: active = GI50 up to about 1.1 µM and inactive = higher.

Columns and labels:
Test in all cases: DTP human tumour cell line panel, 48 h
SF-295 = test system: SF-295
OVCAR-5 = test system: OVCAR-5
UACC-62 = test system: UACC-62
HOP-62 = test system: HOP-62
NCI-H226 = test system: NCI-H226
UACC-257 = test system: UACC-257
SF-268 = test system: SF-268
HT-29 = test system: HT-29
KM12 = test system: KM12
NCI-H23 = test system: NCI-H23
M19-MEL = test system: M19-MEL
TK-10 = test system: TK-10
SR = test system: SR
M14 = test system: M14
DMS-114 = test system: DMS-114
MOLT-4 = test system: MOLT-4
OVCAR-8 = test system: OVCAR-8
CCRF-CEM = test system: CCRF-CEM
RXF 393 = test system: RXF 393
UO-31 = test system: UO-31
U-251 = test system: U-251
NCI-H460 = test system: NCI-H460
SNB-19 = test system: SNB-19
DMS-273 = test system: DMS-273
A549 = test system: A549
HCT-116 = test system: HCT-116
HOP-92 = test system: HOP-92
ACHN = test system: ACHN
SK-OV-3 = test system: SK-OV-3
SNB-78 = test system: SNB-78
HL-60 = test system: HL-60
IGROV-1 = test system: IGROV-1
A498 = test system: A498
KM-20L2 = test system: KM-20L2
NCI-H522 = test system: NCI-H522
EKVX = test system: EKVX
SK-MEL-28 = test system: SK-MEL-28
SK-MEL-5 = test system: SK-MEL-5
CAKI-1 = test system: CAKI-1
Malme-3M = test system: Malme-3M
RPMI-8226 = test system: RPMI-8226
SK-MEL-2 = test system: SK-MEL-2
786-0 = test system: 786-0
HCT-15 = test system: HCT-15
OVCAR-4 = test system: OVCAR-4
HCC 2998 = test system: HCC 2998
K562 = test system: K562
COLO 205 = test system: COLO 205
SN12C = test system: SN12C
LXFL 529 = test system: LXFL 529
SF-539 = test system: SF-539
SNB-75 = test system: SNB-75
LOX IMVI = test system: LOX IMVI
SW-620 = test system: SW-620
DLD-1 = test system: DLD-1

NC(CCCC(N)P(=O)(O)O)C(=O)O (configuration not stated)
GI50 (SF-295): > 100 µM (inactive) | GI50 (OVCAR-5): > 100 µM (inactive) | GI50 (UACC-62): > 100 µM (inactive) | GI50 (HOP-62): > 100 µM (inactive) | GI50 (NCI-H226): > 100 µM (inactive) | GI50 (UACC-257): > 100 µM (inactive) | GI50 (SF-268): > 100 µM (inactive) | GI50 (HT-29): > 100 µM (inactive) | GI50 (KM12): > 100 µM (inactive) | GI50 (NCI-H23): > 100 µM (inactive) | GI50 (M19-MEL): > 100 µM (inactive) | GI50 (TK-10): > 100 µM (inactive) | GI50 (SR): > 100 µM (inactive) | GI50 (M14): > 100 µM (inactive) | GI50 (DMS-114): > 100 µM (inactive) | GI50 (MOLT-4): > 100 µM (inactive) | GI50 (OVCAR-8): > 100 µM (inactive) | GI50 (CCRF-CEM): > 100 µM (inactive) | GI50 (RXF 393): > 100 µM (inactive) | GI50 (UO-31): > 100 µM (inactive) | GI50 (U-251): > 100 µM (inactive) | GI50 (NCI-H460): > 100 µM (inactive) | GI50 (SNB-19): > 100 µM (inactive) | GI50 (DMS-273): > 100 µM (inactive) | GI50 (A549): > 10 µM (inactive) | GI50 (HCT-116): > 100 µM (inactive) | GI50 (HOP-92): > 100 µM (inactive) | GI50 (ACHN): > 100 µM (inactive) | GI50 (SK-OV-3): > 100 µM (inactive) | GI50 (SNB-78): > 100 µM (inactive) | GI50 (HL-60): > 100 µM (inactive) | GI50 (IGROV-1): > 100 µM (inactive) | GI50 (A498): > 100 µM (inactive) | GI50 (KM-20L2): > 100 µM (inactive) | GI50 (NCI-H522): > 100 µM (inactive) | GI50 (EKVX): > 100 µM (inactive) | GI50 (SK-MEL-28): > 100 µM (inactive)

CNS(=O)(=O)NN(C)S(=O)(=O)c1ccccc1
GI50 (SF-295): > 100 µM (inactive) | GI50 (SK-MEL-5): > 100 µM (inactive) | GI50 (CAKI-1): > 100 µM (inactive) | GI50 (Malme-3M): > 100 µM (inactive) | GI50 (RPMI-8226): > 100 µM (inactive) | GI50 (SK-MEL-2): > 100 µM (inactive) | GI50 (UACC-62): > 100 µM (inactive) | GI50 (786-0): > 100 µM (inactive) | GI50 (HCT-15): > 100 µM | GI50 (HOP-62): > 100 µM (inactive) | GI50 (NCI-H226): > 100 µM (inactive) | GI50 (OVCAR-4): > 100 µM (inactive) | GI50 (UACC-257): > 100 µM (inactive) | GI50 (SF-268): > 100 µM (inactive) | GI50 (HT-29): > 100 µM (inactive) | GI50 (KM12): > 100 µM (inactive) | GI50 (HCC 2998): > 100 µM (inactive) | GI50 (K562): > 100 µM (inactive) | GI50 (COLO 205): > 100 µM (inactive) | GI50 (SN12C): > 100 µM (inactive) | GI50 (NCI-H23): > 100 µM (inactive) | GI50 (M19-MEL): > 100 µM (inactive) | GI50 (TK-10): > 100 µM (inactive) | GI50 (SR): > 100 µM (inactive) | GI50 (M14): > 100 µM (inactive) | GI50 (LXFL 529): > 100 µM (inactive) | GI50 (DMS-114): > 100 µM (inactive) | GI50 (MOLT-4): > 100 µM (inactive) | GI50 (OVCAR-8): > 100 µM (inactive) | GI50 (SF-539): > 100 µM (inactive) | GI50 (CCRF-CEM): > 100 µM (inactive) | GI50 (RXF 393): 0.472 µM (active) | GI50 (SNB-75): > 100 µM (inactive) | GI50 (UO-31): > 100 µM (inactive) | GI50 (LOX IMVI): > 100 µM (inactive) | GI50 (U-251): > 100 µM (inactive) | GI50 (NCI-H460): 85.9 µM (inactive) | GI50 (SNB-19): > 100 µM (inactive) | GI50 (SW-620): > 100 µM (inactive) | GI50 (DMS-273): > 100 µM (inactive) | GI50 (A549): > 100 µM (inactive) | GI50 (HCT-116): > 100 µM (inactive) | GI50 (ACHN): > 100 µM (inactive) | GI50 (HL-60): > 100 µM (inactive) | GI50 (IGROV-1): > 100 µM (inactive) | GI50 (A498): > 100 µM (inactive) | GI50 (DLD-1): > 100 µM (inactive) | GI50 (KM-20L2): > 100 µM (inactive) | GI50 (NCI-H522): > 100 µM (inactive) | GI50 (EKVX): > 100 µM (inactive)
